Experimental data: PMC12955470, “A novel approach to combat Pseudomonas aeruginosa: repurposing pharmaceuticals for inhibition of phospholipase A” (Microbiology Spectrum, 2026)

Molecular target: T1, PlaF (Pseudomonas aeruginosa, UniProt G3XCU7)
T1 construct: gene PA2949; purified PlaF (pBBR-plaFH6, His-tagged) reconstituted into phospholipid liposomes
Assay: p-NPB esterase assay with purified PlaF; Michaelis-Menten kinetics (Km increased, vmax unchanged)
Type: biochemical

T1 sequence (G3XCU7 entry or part of it): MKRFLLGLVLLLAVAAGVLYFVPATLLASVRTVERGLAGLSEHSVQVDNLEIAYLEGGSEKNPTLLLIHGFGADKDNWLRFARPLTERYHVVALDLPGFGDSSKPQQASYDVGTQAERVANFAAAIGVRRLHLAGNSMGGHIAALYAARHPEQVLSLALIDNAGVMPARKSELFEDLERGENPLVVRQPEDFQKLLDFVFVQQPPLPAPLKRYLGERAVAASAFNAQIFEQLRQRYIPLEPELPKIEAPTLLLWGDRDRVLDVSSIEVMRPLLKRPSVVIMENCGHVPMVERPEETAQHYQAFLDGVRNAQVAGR

| SMILES | inhibition at 69.2 µM [%] | inhibition at 400 µM [%] |
| --- | --- | --- |
| O=C(/C=C/c1ccc(/C=C/C(=O)Nc2ccc(C3=NCCN3)cc2)cc1)Nc1ccc(C2=NCCN2)cc1 [GW4869] | ~30 | – |
| CCN(CC)CCN(Cc1ccc(-c2ccc(C(F)(F)F)cc2)cc1)C(=O)Cn1c(SCc2ccc(F)cc2)nc(=O)c2c1CCC2 [darapladib] | – | ~50 |
| COCCN1CCC(N(Cc2ccc(-c3ccc(C(F)(F)F)cc3)cc2)C(=O)Cn2c(SCc3cccc(F)c3F)cc(=O)c3ccccc32)CC1 [rilapladib] | – | ~50 |
